Reference: US20240148821A1, “PHARMACEUTICAL USE OF CYCLIC PEPTIDE COMPOUND” (CHUGAI SEIYAKU KABUSHIKI KAISHA, priority 2021, published 2024)
Numbered stars: 1 amine (or outer) side, 2 acyl side, 3 side chain; on linkers, the order of the positions; unused ones are H or OH. Bridge positions count the residues as written; N and C are the ends. Square brackets hold non-standard residues; d marks the D form. Peptide text beside a SMILES is read from it. * marks the point of attachment. hPhe(3,5-F2-4-CF3) = N[C@@H](CCc1cc(F)c(C(F)(F)F)c(F)c1)C(=O)O; hPhe(3-Cl-4-CF3) = N[C@@H](CCc1ccc(C(F)(F)F)c(Cl)c1)C(=O)O; hPhe(3-F,4-CF3) = N[C@@H](CCc1ccc(C(F)(F)F)c(F)c1)C(=O)O; NEtPhe(4-CF3) = CCN[C@@H](Cc1ccc(C(F)(F)F)cc1)C(=O)O; X7 = O=C([C@@H]1C[C@H](N2CCC(F)(F)CC2)CN1[*:1])[*:2]; NMePhe(4-CF3) = CN[C@@H](Cc1ccc(C(F)(F)F)cc1)C(=O)O; 3Oxa8azabicyclo(3.2.1)octane = C1CC2COCC1N2*; NEtPhe(4-Me) = CCN[C@@H](Cc1ccc(C)cc1)C(=O)O; NMePhe(4-Cl) = CN[C@@H](Cc1ccc(Cl)cc1)C(=O)O; NMePhe(4-Me) = CN[C@@H](Cc1ccc(C)cc1)C(=O)O; NMeMet(O2) = CN[C@@H](CCS(C)(=O)=O)C(=O)O; NMedβ3hAla = C[C@H](CC(=O)[*:2])N(C)[*:1]; NMeGly(cPent) = CN[C@H](C(=O)O)C1CCCC1; NMeCha = CN[C@@H](CC1CCCCC1)C(=O)O; Hyp = O=C(O)[C@@H]1C[C@@H](O)CN1; NMeD = CN[C@@H](CC(=O)O)C(=O)O; NMeL = CN[C@@H](CC(C)C)C(=O)O; NEtAla = CCN[C@@H](C)C(=O)O; NMeV = CN[C@H](C(=O)O)C(C)C; NMeA = CN[C@@H](C)C(=O)O; NMeAib = CNC(C)(C)C(=O)O; Piperidide = C1CCN(*)CC1; Ac5c = NC1(C(=O)O)CCCC1; Aze = O=C(O)[C@@H]1CCN1; Sar = CNCC(=O)O

How the values were obtained:
[1] = tested on: Human pancreatic cancer cell line AsPC-1 (G12D mutation Kras); assay: AsPC-1 cell growth inhibition (AsPC-1 CGI); type: cell-based; settings: read-out: AsPC-1 cell growth inhibition, 50% growth inhibitory concentration (IC50 value); 96 hours, CellTiter-Glo, values classified in ranges
Protocol: Test compounds were serially dilated with dimethyl sulfoxide, and 200 nL was then dispensed to a U-bottom 96-well plate using Labcyte Echo. […] The cell suspension was dispensed to a. plate containing a test compound at 100 μL per well and incubated at 37° C. in a 5% carbon dioxide gas incubator. 96 hours later, 80 μL of CellTiter-Glo (Promega) was added to each well and fluorescence was measured.

[2] = molecular target: protein-protein interaction between Kras and SOS1 (biotin-tagged human Kras loaded with GDP, His-tagged human SOS1) (Homo sapiens (Human), UniProt P01116, G12D); assay: Protein-protein interaction inhibition between Kras and SOS1 (KrasG12D-SOS PPI) using AlphaScreen; type: biochemical; settings: AlphaScreen; biotin-tagged human Kras loaded with GDP, His-tagged human SOS1; read-out: KRAS G12D-SOS PPI IC50;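 note: kras produced in E. coli, Ni-coupled donor beads and streptavidin acceptor beads, excitation 680 nm with emission detected at 520–620 nm via singlet oxygen transfer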

CC[C@H](C)[C@@H]1NC(=O)[C@H](CCS(C)(=O)=O)N(C)C(=O)C[C@@H](C(=O)N2CCCCC2)N(C)C(=O)[C@H](C(C)C)N(C)C(=O)C2(CCCC2)NC(=O)[C@@H]2CCCN2C(=O)[C@H](CCc2ccc(C(F)(F)F)c(Cl)c2)NC(=O)CN(C)C(=O)[C@H](CC2CCCCC2)N(C)C(=O)[C@@H]2CCN2C(=O)[C@H](C)N(C)C1=O [Compound 419] ([NMeMet(O2)]I[NMeA][Aze][NMeCha][Sar][hPhe(3-Cl-4-CF3)]P[Ac5c][NMeV][NMeD]-Piperidide; lactam N-11)
IC50 [1]: > 500 nM | IC50 [2]: 2.4 nM

CC[C@H](C)[C@@H]1NC(=O)[C@H](CC(C)C)N(C)C(=O)C[C@@H](C(=O)N2C3CCC2COC3)N(C)C(=O)[C@H](C2CCCC2)N(C)C(=O)C2(CCCC2)NC(=O)[C@@H]2CCCN2C(=O)[C@H](CCc2ccc(C(F)(F)F)c(Cl)c2)NC(=O)CN(C)C(=O)[C@H](Cc2ccc(C(F)(F)F)cc2)N(C)C(=O)[C@@H]2CCN2C(=O)[C@H](C)N(C)C1=O [Compound 422] ([NMeL]I[NMeA][Aze][NMePhe(4-CF3)][Sar][hPhe(3-Cl-4-CF3)]P[Ac5c][NMeGly(cPent)][NMeD]-{3Oxa8azabicyclo(3.2.1)octane}; lactam N-11)
IC50 [1]: ≤ 20 nM | IC50 [2]: 0.87 nM

CCO[C@@H]1C[C@H]2C(=O)NC3(CCCC3)C(=O)N(C)[C@@H](C3CCCC3)C(=O)N(C)[C@H](C)CC(=O)N(C)[C@@H](CC(C)C)C(=O)N[C@@H]([C@@H](C)CC)C(=O)N(C)[C@@H](C)C(=O)N3CC[C@H]3C(=O)N(CC)[C@@H](Cc3ccc(C)cc3)C(=O)N(C)CC(=O)N[C@@H](CCc3cc(F)c(C(F)(F)F)c(F)c3)C(=O)N2C1 [Compound 432] (cyclo([Ac5c][NMeGly(cPent)][NMedβ3hAla][NMeL]I[NMeA][Aze][NEtPhe(4-Me)][Sar][hPhe(3,5-F2-4-CF3)][Hyp](Et)))
IC50 [1]: ≤ 20 nM | IC50 [2]: 4.5 nM

CC[C@H](C)[C@@H]1NC(=O)[C@H](CC(C)C)N(C)C(=O)C[C@@H](C(=O)N2CCCCC2)N(C)C(=O)[C@H](C(C)C)N(C)C(=O)C2(CCCC2)NC(=O)[C@@H]2CCCN2C(=O)[C@H](CCc2ccc(C(F)(F)F)c(Cl)c2)NC(=O)CN(C)C(=O)[C@H](CC2CCCCC2)N(C)C(=O)[C@@H]2CCN2C(=O)[C@H](C)N(CC)C1=O [Compound 443] ([NMeL]I[NEtAla][Aze][NMeCha][Sar][hPhe(3-Cl-4-CF3)]P[Ac5c][NMeV][NMeD]-Piperidide; lactam N-11)
IC50 [1]: > 500 nM | IC50 [2]: 30 nM

CC(C)C[C@H]1C(=O)N[C@@H]([C@@H](C)O)C(=O)N(C)[C@@H](C)C(=O)N2CC[C@H]2C(=O)N(C)[C@@H](CC2CCCCC2)C(=O)N(C)CC(=O)N[C@@H](CCc2ccc(C(F)(F)F)c(Cl)c2)C(=O)N2CCC[C@H]2C(=O)NC2(CCCC2)C(=O)N(C)[C@@H](C(C)C)C(=O)N(C)[C@H](C(=O)N2CCCCC2)CC(=O)N1C [Compound 450] ([NMeL]T[NMeA][Aze][NMeCha][Sar][hPhe(3-Cl-4-CF3)]P[Ac5c][NMeV][NMeD]-Piperidide; lactam N-11)
IC50 [1]: > 500 nM | IC50 [2]: 6.6 nM

CC[C@H](C)[C@@H]1NC(=O)[C@H](C)N(C)C(=O)C[C@@H](C(=O)N2CCCCC2)N(C)C(=O)[C@H](C(C)C)N(C)C(=O)C2(CCCC2)NC(=O)[C@@H]2C[C@H](N3CCC(F)(F)CC3)CN2C(=O)[C@H](CCc2ccc(C(F)(F)F)c(Cl)c2)NC(=O)CN(C)C(=O)[C@H](CC2CCCCC2)N(C)C(=O)CN(C)C(=O)CN(C)C1=O [Compound 460] ([NMeA]I[Sar][Sar][NMeCha][Sar][hPhe(3-Cl-4-CF3)][X7][Ac5c][NMeV][NMeD]-Piperidide; lactam N-11)
IC50 [1]: > 500 nM | IC50 [2]: 1 nM

CCO[C@@H]1C[C@H]2C(=O)NC3(CCCC3)C(=O)N(C)[C@@H](C3CCCC3)C(=O)N(C)[C@H](C)CC(=O)N(C)[C@@H](CC(C)C)C(=O)N[C@@H]([C@@H](C)CC)C(=O)N(C)[C@@H](C)C(=O)N3CC[C@H]3C(=O)N(CC)[C@@H](Cc3ccc(C(F)(F)F)cc3)C(=O)N(C)CC(=O)N[C@@H](CCc3cc(F)c(C(F)(F)F)c(F)c3)C(=O)N2C1 [Compound 466] (cyclo([Ac5c][NMeGly(cPent)][NMedβ3hAla][NMeL]I[NMeA][Aze][NEtPhe(4-CF3)][Sar][hPhe(3,5-F2-4-CF3)][Hyp](Et)))
IC50 [1]: ≤ 20 nM | IC50 [2]: 3.1 nM

CC[C@H](C)[C@@H]1NC(=O)[C@H](CC(C)C)N(C)C(=O)C[C@@H](C)N(C)C(=O)[C@H](CC(C)C)NC(=O)C(C)(C)N(C)C(=O)[C@H](Cc2ccccc2)NC(=O)[C@H](CCc2ccc(C(F)(F)F)c(F)c2)NC(=O)CN(C)C(=O)[C@H](Cc2ccc(Cl)cc2)N(C)C(=O)CN(C)C(=O)CN(C)C1=O [Compound 471] (cyclo(F[NMeAib]L[NMedβ3hAla][NMeL]I[Sar][Sar][NMePhe(4-Cl)][Sar][hPhe(3-F,4-CF3)]))
IC50 [1]: > 500 nM | IC50 [2]: 58 nM

CC[C@H](C)[C@@H]1NC(=O)[C@H](CC(C)C)N(C)C(=O)C[C@@H](C)N(C)C(=O)[C@H](C2CCCC2)N(C)C(=O)C2(CCCC2)NC(=O)[C@@H]2CCCN2C(=O)[C@H](CCc2ccc(C(F)(F)F)c(F)c2)NC(=O)CN(C)C(=O)[C@H](Cc2ccc(C)cc2)N(C)C(=O)[C@@H]2CCN2C(=O)[C@H](C)N(C)C1=O [Compound 481] (cyclo([Ac5c][NMeGly(cPent)][NMedβ3hAla][NMeL]I[NMeA][Aze][NMePhe(4-Me)][Sar][hPhe(3-F,4-CF3)]P))
IC50 [1]: ≤ 20 nM | IC50 [2]: 2 nM
